Measurements reported in ChEMBL document CHEMBL3739388, “Attenuation of TNF-α secretion by L-proline-based cyclic dipeptides produced by culture broth of Pseudomonas aeruginosa” (Bioorg Med Chem Lett, 2015).
≈ marks a conversion by molar mass, not a printed value.

How the values were obtained:
RAW264.7 [1] = assay: Inhibition of LPS-induced TNF-alpha production in mouse RAW264.7 cells pretreated with compound at 10 uM for 1 hr followed by addition of 1 ug/ml LPS for 6 hrs by ELISA; type: functional
[2] = Cytotoxicity against mouse RAW264.7 cells assessed as decrease in cell viability pretreated at 50 uM for 1 hr followed by addition of LPS incubated for 24 hrs by MTT assay; type: cell-based; details: read-out: INH
RAW264.7 [3] = assay: Toxicity in mouse RAW264.7 cells assessed as effect on TNF-alpha mRNA level by qRT-PCR analysis; type: cell-based
RAW264.7 [4] = assay: Inhibition of LPS-induced TNF-alpha production in mouse RAW264.7 cells pretreated with compound at 100 uM for 1 hr followed by addition of 1 ug/ml LPS for 6 hrs by ELISA; type: functional
RAW264.7 [5] = assay: Inhibition of LPS-induced TNF-alpha mRNA level in mouse RAW264.7 cells in presence of 1 ug/ml LPS for 6 hrs by qRT-PCR analysis; type: functional, cell-based
RAW264.7 [6] = assay: Inhibition of LPS-induced IL-6 mRNA level in mouse RAW264.7 cells in presence of 1 ug/ml LPS for 6 hrs by qRT-PCR analysis; type: functional, cell-based
RAW264.7 [7] = assay: Toxicity in mouse RAW264.7 cells assessed as effect on NO production by Griess method; type: cell-based
RAW264.7 [8] = assay: Inhibition of LPS-induced IL-1beta mRNA level in mouse RAW264.7 cells in presence of 1 ug/ml LPS for 6 hrs by qRT-PCR analysis; type: functional, cell-based
RAW264.7 [9] = assay: Inhibition of LPS-induced TNF-alpha production in mouse RAW264.7 cells pretreated with compound for 1 hr followed by addition of 1 ug/ml LPS for 6 hrs by ELISA; type: functional, cell-based
RAW264.7 [10] = assay: Inhibition of LPS-induced NO production in mouse RAW264.7 cells at 100 ug/ml cotreated with 1 ug/ml LPS for 16 hrs by Griess reagent method; type: functional
Rattus norvegicus = assay: Inhibition of LPS-induced TNF-alpha production in albino Wistar rat plasma pretreated with compound at 50 mg/kg, po followed by administration of 0.3 mg/kg, ip LPS measured after 90 mins by ELISA; type: functional

Row | SMILES | inhibition (INH) (RAW264.7 [1]) | cytotoxicity at 24 h, 50 µM [2] | Activity (RAW264.7 [3]) | inhibition (INH) (RAW264.7 [4]) | inhibition (RAW264.7 [5]) | inhibition (RAW264.7 [6]) | Activity (RAW264.7 [7]) | inhibition (RAW264.7 [8]) | IC50 (RAW264.7 [9]) | inhibition (INH) (RAW264.7 [10]) | inhibition (INH) (Rattus norvegicus)
1 | C[C@]12C=CC(=O)C=C1CC[C@@H]1[C@@H]2[C@@H](O)C[C@@]2(C)[C@H]1CC[C@]2(O)C(=O)CO [PREDNISOLONE] | 42.8% |  |  |  |  |  |  |  |  |  | 
2 | O=C1N[C@@H](Cc2ccccc2)C(=O)N2CCC[C@@H]12 |  | 3% | Non-toxic | 45% | Dose-dependent effect | Dose-dependent effect | Non-toxic | Dose-dependent effect |  |  | 
3 | O=C1NCC(=O)N2CCC[C@@H]12 [CYCLO(PROLYLGLYCYL)] |  | 3% | Non-toxic |  | Dose-dependent effect | Dose-dependent effect | Non-toxic | Dose-dependent effect | 4.5 µg/mL (≈ 29.2 µM) | 39.7% | 
4 | O=C1N[C@@H](Cc2ccccc2)C(=O)N2C[C@H](O)C[C@@H]12 |  | 3% | Non-toxic |  | Dose-dependent effect | Dose-dependent effect | Non-toxic | Dose-dependent effect | 14.2 µg/mL (≈ 54.6 µM) | 43.5% | 
5 | CC(C)C[C@@H]1NC(=O)[C@@H]2C[C@@H](O)CN2C1=O |  | 3% | Non-toxic | 49.3% | Dose-dependent effect | Dose-dependent effect | Non-toxic | Dose-dependent effect |  |  | 51%
